Laboratory results reported in PubChem BioAssay (NCI).
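Test compounds were applied to cells in 96-well plates for 48 hours at 5 doses. GI50: concentration for 50% inhibition of growth. TGI denotes the concentration required for complete inhibition of growth.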

Tests used:
Assay in all cases: DTP human tumour cell line panel, 48 h
[1] = system: ACHN renal
[2] = system: HOP-92 NSCLC
[3] = system: SW-620 colon
[4] = system: U251 CNS
[5] = system: SN12C renal
[6] = system: MALME-3M melanoma
[7] = system: NCI-H460 lung
[8] = system: NCI-H522 lung
[9] = system: K-562 leukemia
[10] = system: SNB-75 CNS

`O=c1c(-c2ccccc2)coc2cc(OC/C(=N/O)c3ccccc3)ccc12` gave a GI50 [1] of 21.8 µM, a TGI [1] of 43.5 µM and a GI50 [2] of 15.3 µM. It also gave a TGI [2] of 47.4 µM, a GI50 [3] of 20.2 µM and a TGI [3] of 64.8 µM. The GI50 [4] was 21.4 µM, the TGI [4] was 56.1 µM and the GI50 [5] was 18 µM. The TGI [5] was 39.9 µM, the GI50 [6] was 10.4 µM and the TGI [6] was 28.3 µM. The GI50 [7] was 11 µM, the TGI [7] was 26.9 µM and the GI50 [8] was 7.54 µM. The TGI [8] was 64.4 µM, the GI50 [9] was 11.3 µM and the TGI [9] was > 100 µM. It also gave a GI50 [10] of 22.9 µM and a TGI [10] of 79.2 µM.
Work on `O=C1C(=O)c2cccnc2-c2ncccc21` yielded a GI50 [1] of 0.0545 µM, a TGI [1] of 0.318 µM and a GI50 [2] of 0.175 µM. The TGI [2] was 0.618 µM, the GI50 [3] was 0.072 µM and the TGI [3] was 1.12 µM. The GI50 [4] was 0.131 µM, the TGI [4] was 0.674 µM and the GI50 [5] was 0.25 µM. It also gave a TGI [5] of 0.848 µM, a GI50 [6] of 0.215 µM and a TGI [6] of 0.769 µM. The GI50 [7] was 0.0678 µM, the TGI [7] was 0.774 µM and the GI50 [8] was 0.126 µM. It also gave a TGI [8] of 0.332 µM, a GI50 [9] of 0.211 µM and a TGI [9] of 0.848 µM. For the same compound, the GI50 [10] was 0.123 µM and the TGI [10] was 1.4 µM.
For `NC(N)=NS(=O)(=O)c1ccc(NCCc2c3ccccc3nc3ccccc23)cc1`, the TGI [1] was > 100 µM, the TGI [2] was > 100 µM and the TGI [3] was > 100 µM. For the same compound, the TGI [4] was > 100 µM, the TGI [5] was > 100 µM and the TGI [6] was > 100 µM. The TGI [7] was > 100 µM, the TGI [8] was > 100 µM and the TGI [9] was > 100 µM. For the same compound, the TGI [10] was > 100 µM.
`COc1cc2c(cc1OC)/C(=C\c1ccccc1N)C(=O)OC2` showed a TGI [1] of 34.7 µM, a TGI [2] of 27.6 µM and a TGI [3] of 13.9 µM. It also gave a TGI [4] of 32.6 µM, a TGI [5] of 31.4 µM and a TGI [6] of 29.1 µM. It also gave a TGI [7] of 33.5 µM, a TGI [8] of 3.47 µM and a TGI [9] of 16.1 µM. The TGI [10] was 24.9 µM.
`CN(C)c1ccc(/C=c2\sc3nc4ccccc4n3c2=O)cc1` was tested, and the TGI [1] was > 100 µM, the TGI [2] was > 100 µM and the TGI [3] was > 100 µM. For the same compound, the TGI [4] was > 100 µM, the TGI [5] was > 100 µM and the TGI [6] was > 100 µM. For the same compound, the TGI [7] was > 100 µM, the TGI [8] was > 100 µM and the TGI [9] was > 100 µM. The TGI [10] was > 100 µM.
With `O=C1C(Cl)=C(NCc2ccco2)C(=O)c2ccccc21` the GI50 [1] was 27 µM, the TGI [1] was > 100 µM and the GI50 [2] was 23.2 µM. The TGI [2] was 62.2 µM, the GI50 [3] was 18.3 µM and the TGI [3] was > 100 µM. The GI50 [4] was 17 µM, the TGI [4] was > 93.7 µM and the GI50 [5] was 25.9 µM. For the same compound, the TGI [5] was > 100 µM, the GI50 [6] was 2.03 µM and the TGI [6] was 4.37 µM. For the same compound, the GI50 [7] was 4.78 µM, the TGI [7] was > 100 µM and the GI50 [8] was 7.15 µM. For the same compound, the TGI [8] was > 55.2 µM, the GI50 [9] was 4.55 µM and the TGI [9] was > 100 µM. The GI50 [10] was 2.25 µM and the TGI [10] was 7.53 µM.
For `O=C(c1ccccc1)c1cn(/N=C\c2ccccc2)c(=O)nc1-c1ccccc1`, the TGI [1] was > 100 µM, the TGI [2] was > 100 µM and the TGI [3] was > 100 µM. The TGI [4] was > 100 µM, the TGI [5] was > 100 µM and the TGI [6] was > 100 µM. The TGI [7] was > 100 µM, the TGI [8] was > 100 µM and the TGI [9] was > 100 µM. For the same compound, the TGI [10] was > 100 µM.
`C=C1CC2(OC1=O)C(=O)Nc1ccccc12` (stereo not given) gave a GI50 [1] of 1.09 µM, a TGI [1] of 2.29 µM and a GI50 [2] of 1.28 µM. It also gave a TGI [2] of 2.75 µM, a GI50 [3] of 1.38 µM and a TGI [3] of 3.22 µM. The GI50 [4] was 13.1 µM, the TGI [4] was 30.5 µM and the GI50 [5] was 3.74 µM. It also gave a TGI [5] of 14.1 µM, a GI50 [6] of 1.24 µM and a TGI [6] of 2.64 µM. For the same compound, the GI50 [7] was 6.48 µM, the TGI [7] was 24.7 µM and the GI50 [8] was 0.542 µM. For the same compound, the TGI [8] was 2.03 µM, the GI50 [9] was 1.88 µM and the TGI [9] was 10 µM. The GI50 [10] was 11 µM and the TGI [10] was 28.1 µM.
